From patent US9687548B2, “Photoactivatable caged tamoxifen and tamoxifen derivative molecules and methods of use thereof” (Dana-Farber Cancer Institute, Inc., priority 2012, dated 2017)
Entries after “also recorded” stand apart in the source; their conditions may differ.

Key:
[1] = Stability of caged molecule in the absence of light; type: physicochemical; details: in the dark / prior to illumination
[2] = biological target: T1, CreER (Homo sapiens, UniProt P03372, G400V/L544A/M543A); assay: In vivo photoactivation in skin of Rosa26CreERT2; mT/mG mice (OV-110 imaging); set-up: species or system mouse
T1 construct: host or cells: cells and tissues (MEFs, mammary epithelial acini, skin, mammary gland) of heterozygous Rosa26CreER^T2 knock-in reporter mice; the other entry of the earlier key: cre (P06956, Recombinase cre)
T1 sequence (P03372 with tags, fused parts or gaps G400V/M543A/L544A): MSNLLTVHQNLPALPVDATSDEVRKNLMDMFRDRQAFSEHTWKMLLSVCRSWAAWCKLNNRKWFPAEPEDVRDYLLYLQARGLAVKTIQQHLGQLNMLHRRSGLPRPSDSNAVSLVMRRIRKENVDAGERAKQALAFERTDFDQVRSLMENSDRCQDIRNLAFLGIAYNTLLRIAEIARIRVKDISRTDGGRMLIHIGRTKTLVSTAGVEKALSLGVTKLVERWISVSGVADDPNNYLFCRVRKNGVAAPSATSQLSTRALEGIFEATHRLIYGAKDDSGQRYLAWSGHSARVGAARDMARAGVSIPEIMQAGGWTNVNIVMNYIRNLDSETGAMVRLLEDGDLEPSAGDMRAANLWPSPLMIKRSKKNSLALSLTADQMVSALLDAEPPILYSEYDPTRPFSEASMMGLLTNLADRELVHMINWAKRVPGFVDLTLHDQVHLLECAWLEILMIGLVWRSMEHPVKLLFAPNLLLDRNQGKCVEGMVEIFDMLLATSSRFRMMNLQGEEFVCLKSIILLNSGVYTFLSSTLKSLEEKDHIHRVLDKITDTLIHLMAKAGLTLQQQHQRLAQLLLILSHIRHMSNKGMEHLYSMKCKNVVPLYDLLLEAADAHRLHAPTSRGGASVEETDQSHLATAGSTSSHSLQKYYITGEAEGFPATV
Experimental: (§1) Female mice of 6-8 weeks old were clean shaven on the dorsal and ventral sides. The caged 4-OHC was dissolved in 20% Solutol for in vivo delivery. The vehicle or 1 mg caged 4-OHC in vehicle was injected intraperitoneally. One hour later, the mice were anesthetized with isoflurane and exposed to UV light from the hand-held 6 W long-wavelength UV lamp (UVP, LLC) for 15 minutes. Alternatively, for mammary tissue illumination, the right inguinal (#4) mammary fat pad was exposed by creating a small skin flap and illumination with UV light for 15 minutes. For enhanced photoconversion, this procedure was repeated four times. On the seventh day, the mice were imaged with Olympus OV-110 epifluorescence imager (Thurber et al., PLoS One 4:e8053, 2009) to detect fluorescent signals emitted from the skin on the dorsal and ventral sides. Alternatively, the left and right mammary glands were dissected and immediately imaged using the intravital laser scanning microscope IV-110 (Kelly et al., PLoS Med. 5:e85, 2008).

[3] = 4-OHC compared with 4-OHT; cited from earlier work
[4] = biological target: T2, CreER fusion protein (Homo sapiens, UniProt P03372, G400V/L544A/M543A); assay: X-gal (lacZ) reporter in MEFs from Rosa26CreERT2; R26R (Lox-STOP-Lox-lacZ) embryos; type: cell-based, mouse; details: with vs without 365 nm UV light exposure; X-gal stained MEFs
T2 construct: host or cells: cells and tissues (MEFs, mammary epithelial acini, skin, mammary gland) of heterozygous Rosa26CreER^T2 knock-in reporter mice; the other entry of the earlier key: cre (P06956, Recombinase cre)
T2 sequence (P03372 with tags, fused parts or gaps G400V/M543A/L544A): T1 sequence (P03372 with tags, fused parts or gaps G400V/M543A/L544A)
Experimental: (§2) Mouse embryonic fibroblasts (MEFs) were isolated as described (Sharpless et al., Mol. Cell 8:1187-1196, 2001) and grown in DMEM with 10% FBS. To shed UV light on the cells, the cells were first grown in 60-mm dish overnight to become nearly confluent. The next day, the medium was replaced with medium containing caged 4-OHC at 5 μM and incubated for 30 minutes. The cells were washed twice quickly with warm PBS and covered with fresh medium. The dish was placed on the UV emission surface of a handheld 6 W long-wavelength UV lamp (UVP, LLC), and UV light was kept on for a designated period of time. The cells were put back into the incubator to culture for 48-72 h before live imaging or flow cytometric analysis.
Mouse embryonic fibroblasts (MEFs) isolated from the Rosa26CreER^T2; mT/mG mice in cell culture were used to test the caged 4-OHC activity. The Rosa26CreER^T2; mT/mG MEFs were treated with either 4-OHC or caged 4-OHC and illuminated at 365 nm. […] To further test the caged 4-OHC, another reporter mouse was generated (Rosa26CreER^T2; R26R mice). The Rosa26CreER^T2; R26R mice were generated by crossing homozygous Rosa26CreER^T2 mice with homozygous Rosa26-loxP-STOP-loxP-lacZ mice (experimental system shown in FIG. 9).
An additional set of experiments were performed to test the ability of Caged Molecules I, II, and III (shown in Schematic #5) to induce nuclear translocation of a ER fusion protein in a cell following light exposure. Mouse embryonic fibroblasts from Rosa26-CreER^T2; Lox-STOP-Lox-lacZ embryos were treated with 5 μM 4-OHC (positive control; lower left panel), treat Caged Molecule I (“Compound I”) with or without 365 nm UV light exposure (top right and top center panels, respectively), Caged Molecule II (“Compound II”) with or without 365 nm UV light exposure (middle right and middle center panels, respectively), or Caged Molecule III (“Compound III”) with or without 365 UV light exposure (bottom right and […] panels, respectively).

[5] = biological target: T1, CreER; assay: Photoactivated EGFP expression in MEFs from Rosa26CreERT2; mT/mG mice; type: cell-based, mouse; details: 5 μM, 365 nm illumination vs no light
Experimental: as §2
A recently developed double-fluorescent Cre reporter mouse, the mT/mG strain (Muzumdar, Genesis 45:593, 2007) was used to design a biological system that can faithfully report on the induced activity of CreER. This mouse model expresses tdTomato prior to and EGFP following Cre-mediated recombination ubiquitously in tissues. […] The photoinduced activity of caged tamoxifen and caged tamoxifen derivative molecules can be assessed by illuminating the cells and tissues from these mice and looking for EGFP-expressed cells (FIG. 1).

[6] = UV-Vis and HPLC-MS characterization of the photocleavage of caged 4-OHC; type: physicochemical
Experimental: A 0.25 mM solution of caged 4-OHC in 1:1 (v/v) water:acetonitrile was used for the UV-Vis spectroscopic characterization of the photocleavage reaction. The solution of the caged 4-OHC was placed in a 96-well black clear bottom microplate. The solution was then irradiated at ˜365 nm using a hand-held UV lamp. After light exposure, UV-Vis spectra of the solution was recorded in a TECAN microplate reader. A time course of the photocleavage reaction was monitored by exposing the caged 4-OHC solution to light for different durations, and subsequently recording the UV-Vis spectra of the solution.
A 2.0 mM solution of caged 4-OHC in 1:1 (v/v) water: acetonitrile was used for the HPLC-MS study. The solution of the caged 4-OHC was placed in a glass vial and irradiated at ˜365 nm using a hand-held UV lamp. Aliquots were taken at different time intervals and injected to the HPLC-MS machine for analysis. Prism 5 (GraphPad, La Jolla, Calif.) for Mac was used to plot the data.

[7] = biological target: T1, CreER; assay: In vivo photoactivation in mammary gland of female Rosa26CreERT2; mT/mG mice (ex vivo IV-110 imaging); set-up: species or system mouse
Experimental: as §1

[8] = biological target: T1, CreER; assay: Photoactivated EGFP expression in mammary acinus 3D culture from Rosa26CreERT2; mT/mG mice; type: cell-based, mouse; details: 5 μM, 1 min UV lamp or 60× objective DAPI filter
Experimental: Mouse mammary epithelial cells […] were isolated from 6-8 week old female Rosa26CreER^T2; mT/mG mice as previously described (Tiede et al., PLoS One 4:e8035, 2009). Briefly, mammary glands were excised, minced using scalpels, and digested for 1 hour in 300 U/mL type 1A collagenase (Sigma) and 100 U/mL hyaluronidase (Sigma). The cells were then treated with 0.25% trypsin/EDTA, dispase (Invitrogen)/DNase (Sigma), and ACK lysing buffer (Invitrogen) in succession. Between each treatment, cells were rinsed in MEGM (1:1 DMEM:F12 Ham supplemented with […], 500 ng/mL hydrocortisone, 10 ng/mL EGF, 20 ng/mL cholera toxin, 5% bovine calf serum, and 1× penicillin/streptomycin). Afterwards, cells were filtered twice through […] nylon cell strainers and seeded in 35-mm dishes that contained a layer of Growth Factor Reduced Matrigel (BD Biosciences) measuring approximately 1-2 mm thickness. Acini usually formed in 4-8 days. During photoactivation, the acini were incubated with MEGM containing 5 μM caged 4-OHC for 1 hour. The cells were washed twice quickly with warm PBS and covered with fresh medium. The dish was placed on the UV emission surface of a hand-held 6 W long-wavelength UV lamp (UVP, LLC, exposure time: 1 minute) or above the 60× objective of an inverted epifluorescent microscope equipped with a standard DAPI filter set. […]

4-hydrocyclofen conjugated with the photoactivatable 4,5-demethoxy-2-nitrophen methanol (DMNPM) group [DMNPM caged 4-hydroxycyclofen, reference compound]
breakdown in the absence of light exposure [1]: spontaneous breakdown in the absence of appropriate light exposure

CN(C)CCOc1ccc(C(=C2CCCCC2)c2ccc(O)cc2)cc1 [4-OHC, 4-hydroxycyclofen, reference compound]
EGFP signal at whole mouse level ([2]; treated with 4-OHC (uncaged)): strong EGFP signal was detected | photostability [3]: better photostability

COc1ccc(-c2ccc([N+](=O)[O-])c(C(C)COc3ccc(C(=C4CCCCC4)c4ccc(OCCN(C)C)cc4)cc3)c2)cc1 (stereo not drawn) [Caged Molecule III]
nuclear translocation / nuclear transport of the ER fusion protein [4]: resulted in an increase in the nuclear transport of the ER fusion protein

CCOC(=O)COc1c(OC)cc([N+](=O)[O-])c(COc2ccc(C(=C3CCCCC3)c3ccc(OCCN(C)C)cc3)cc2)c1[N+](=O)[O-] [Caged Molecule II]
nuclear translocation / nuclear transport of the ER fusion protein [4]: resulted in an increase in the nuclear transport of the ER fusion protein

CCOc1c(OC)cc([N+](=O)[O-])c(COc2ccc(C(=C3CCCCC3)c3ccc(OCCN(C)C)cc3)cc2)c1[N+](=O)[O-] [Caged Molecule I]
nuclear translocation / nuclear transport of the ER fusion protein [4]: resulted in an increase in the nuclear transport of the ER fusion protein

COc1cc(C(C)Oc2ccc(C(=C3CCCCC3)c3ccc(OCCN(C)C)cc3)cc2)c([N+](=O)[O-])cc1OC (stereo not drawn) [caged 4-OHC, 1-(4,5-dimethoxy-2-nitrophenyl) ethanol (DMNPE) caged 4-hydroxycyclofen]
EGFP signal on illuminated ventral vs non-illuminated dorsal skin ([2]; intraperitoneal, UV illumination only on ventral skin): EGFP signal was observed on the ventral skin but not on the dorsal skin | average increase in fluorescence intensity ([2]; intraperitoneal, ventral skin UV illuminated): 2.5 fold | breakdown in the absence of light exposure [1]: did not appear to show any sign of breakdown prior to illumination | EGFP expression after photocleavage [5]: induced EGFP expression in a stringent fashion | conversion to / release of 4-OHC upon UV irradiation ([6]; HPLC-MS, ~365 nm, 2.0 mM in water:acetonitrile 1:1): quantitative, unidirectional conversion to 4-OHC; also recorded: quantitative release of 4-OHC | time to completion of photochemical (photocleavage) reaction ([6]; hand-held 365 nm UV lamp, UV-Vis, water:acetonitrile 1:1): ≤ 10 min | EGFP induction in illuminated right vs non-illuminated left mammary gland ([7]; intraperitoneal, 365 nm light on right mammary gland, seven days later): the right, but not the left, mammary gland showed strong EGFP induction; also recorded: expressed EGFP | diffusion after uncaging to other organs ([7]; skin and mammary gland data taken together): limited diffusion after uncaging | EGFP expression in response to photoactivation [8]: very tight control of EGFP expression in response to photoactivation
